Data taken from patent US12492204B2, “Substituted (7H-pyrrolo[2,3-D]pyrimidin-4-yl) amino compounds useful as JAK 1 inhibitors” (CHEMWERTH, INC., priority 2019, dated 2025).
pIC50: −log10 of the molar value.

Columns and labels:
JAK1 = JAK1 (Homo sapiens (Human), UniProt P23458); assay: JAK1 enzymatic assay; type: biochemical; settings: for pIC50: ATP 66 μM, Peptide D; for selectivity for JAK1 over JAK2 / selectivity for JAK1 over JAK3: from enzymatic IC50 values; for selectivity for JAK1 over JAK2: JAK1 vs JAK2; for selectivity for JAK1 over JAK3: JAK1 vs JAK3
Chain of JAK1 (P23458 whole entry): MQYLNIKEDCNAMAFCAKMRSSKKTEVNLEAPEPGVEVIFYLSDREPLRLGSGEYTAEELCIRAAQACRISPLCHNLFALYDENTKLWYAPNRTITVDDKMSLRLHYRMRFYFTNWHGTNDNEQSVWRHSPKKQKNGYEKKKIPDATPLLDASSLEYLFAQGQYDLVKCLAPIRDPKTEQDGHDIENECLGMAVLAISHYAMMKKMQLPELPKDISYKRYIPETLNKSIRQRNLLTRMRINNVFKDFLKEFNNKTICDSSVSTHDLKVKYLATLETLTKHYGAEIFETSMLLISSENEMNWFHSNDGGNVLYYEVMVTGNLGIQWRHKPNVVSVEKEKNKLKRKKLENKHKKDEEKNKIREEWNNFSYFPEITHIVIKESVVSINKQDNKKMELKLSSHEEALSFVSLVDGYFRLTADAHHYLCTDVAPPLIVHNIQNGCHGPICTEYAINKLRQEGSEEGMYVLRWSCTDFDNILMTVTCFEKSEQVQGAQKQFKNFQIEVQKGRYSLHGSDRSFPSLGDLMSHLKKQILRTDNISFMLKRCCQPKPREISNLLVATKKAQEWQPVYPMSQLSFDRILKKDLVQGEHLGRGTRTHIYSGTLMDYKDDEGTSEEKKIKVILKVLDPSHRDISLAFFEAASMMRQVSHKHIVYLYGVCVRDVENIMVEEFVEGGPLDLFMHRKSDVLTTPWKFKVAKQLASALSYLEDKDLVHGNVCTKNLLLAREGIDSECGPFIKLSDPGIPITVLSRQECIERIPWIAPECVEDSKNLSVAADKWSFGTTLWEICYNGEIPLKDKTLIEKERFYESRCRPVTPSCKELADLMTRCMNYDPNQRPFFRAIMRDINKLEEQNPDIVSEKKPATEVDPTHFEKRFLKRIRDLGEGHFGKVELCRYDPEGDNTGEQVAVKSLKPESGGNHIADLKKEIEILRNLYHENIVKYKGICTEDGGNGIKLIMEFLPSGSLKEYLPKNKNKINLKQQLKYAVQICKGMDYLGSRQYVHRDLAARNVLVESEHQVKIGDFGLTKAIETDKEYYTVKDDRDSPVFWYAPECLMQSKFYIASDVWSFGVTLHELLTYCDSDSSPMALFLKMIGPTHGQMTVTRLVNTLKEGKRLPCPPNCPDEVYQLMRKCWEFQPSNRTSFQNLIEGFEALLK
Description: (§1) A. JAK1, JAK2, and JAK3 Enzymatic Assays
(§2) The JAK enzymatic assay used the following reagents.
(§3) Preparation of assay plate. Each sample or reference compound was diluted to 50× the desired highest inhibitor concentration with DMSO. Each sample or reference compound was serially diluted using a 96-well source plate so that there were 10 concentrations for testing. 10 μL from each well of the source plate was transferred to a 96-well intermediate plate. […] 5 μL from each well of the 96-well intermediate plate was transferred to a 384-well plate.
(§4) Kinase reaction. […] The term “max” refers to the DMSO control and “min” stands for low control. Curve-fitting of the data was performed using Xlfit excel add-in version 5.4.0.8 to obtain IC50 values. Equation used was Y=Bottom+(Top−Bottom)/(1+(Log IC50/X)^HillSlope. The peptide substrates used for each kinase, peptide concentration, enzyme concentration, and ATP concentrations are presented in TABLE 2.

JAK2 = JAK2 (Homo sapiens (Human), UniProt O60674); assay: JAK2 enzymatic assay; type: biochemical; settings: ATP 6.5 μM, Peptide22
Chain of JAK2 (O60674 whole entry): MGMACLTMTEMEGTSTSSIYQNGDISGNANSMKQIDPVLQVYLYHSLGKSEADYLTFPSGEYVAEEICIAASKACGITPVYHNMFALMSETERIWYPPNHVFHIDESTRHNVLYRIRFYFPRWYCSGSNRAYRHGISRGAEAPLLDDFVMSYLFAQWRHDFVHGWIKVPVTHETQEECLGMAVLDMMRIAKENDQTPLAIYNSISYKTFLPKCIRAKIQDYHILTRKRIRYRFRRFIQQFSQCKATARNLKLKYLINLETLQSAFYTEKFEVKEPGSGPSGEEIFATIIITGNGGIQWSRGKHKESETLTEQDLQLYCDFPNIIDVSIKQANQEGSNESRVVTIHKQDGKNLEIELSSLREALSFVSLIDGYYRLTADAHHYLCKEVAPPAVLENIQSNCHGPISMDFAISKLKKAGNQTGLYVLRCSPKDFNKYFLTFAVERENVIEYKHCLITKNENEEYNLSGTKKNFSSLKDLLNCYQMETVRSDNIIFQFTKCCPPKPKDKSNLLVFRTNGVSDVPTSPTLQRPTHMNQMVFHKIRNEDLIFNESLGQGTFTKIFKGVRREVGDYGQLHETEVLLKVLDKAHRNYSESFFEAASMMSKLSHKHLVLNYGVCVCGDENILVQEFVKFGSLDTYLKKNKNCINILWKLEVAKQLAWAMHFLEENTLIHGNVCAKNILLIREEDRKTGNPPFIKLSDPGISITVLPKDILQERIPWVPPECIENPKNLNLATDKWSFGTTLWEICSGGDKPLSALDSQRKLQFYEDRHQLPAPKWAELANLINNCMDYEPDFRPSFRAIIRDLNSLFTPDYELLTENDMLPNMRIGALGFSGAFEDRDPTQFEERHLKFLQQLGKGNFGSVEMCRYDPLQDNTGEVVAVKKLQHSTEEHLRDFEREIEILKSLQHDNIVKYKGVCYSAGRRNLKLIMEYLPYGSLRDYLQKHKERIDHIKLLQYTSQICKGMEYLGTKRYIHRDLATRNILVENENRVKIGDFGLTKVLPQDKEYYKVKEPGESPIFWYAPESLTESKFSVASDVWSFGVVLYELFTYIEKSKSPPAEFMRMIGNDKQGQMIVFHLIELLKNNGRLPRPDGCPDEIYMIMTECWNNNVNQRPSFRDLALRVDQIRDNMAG
Description: as §1, §2
JAK2 (Carna Bio, USA, Inc. Natick, MA, Cat.No. 08-045)
as §3, §4

JAK3 = JAK3 (Homo sapiens (Human), UniProt P52333); assay: JAK3 enzymatic assay; type: biochemical; settings: ATP 6.2 μM, Peptide22
Chain of JAK3 (P52333 whole entry): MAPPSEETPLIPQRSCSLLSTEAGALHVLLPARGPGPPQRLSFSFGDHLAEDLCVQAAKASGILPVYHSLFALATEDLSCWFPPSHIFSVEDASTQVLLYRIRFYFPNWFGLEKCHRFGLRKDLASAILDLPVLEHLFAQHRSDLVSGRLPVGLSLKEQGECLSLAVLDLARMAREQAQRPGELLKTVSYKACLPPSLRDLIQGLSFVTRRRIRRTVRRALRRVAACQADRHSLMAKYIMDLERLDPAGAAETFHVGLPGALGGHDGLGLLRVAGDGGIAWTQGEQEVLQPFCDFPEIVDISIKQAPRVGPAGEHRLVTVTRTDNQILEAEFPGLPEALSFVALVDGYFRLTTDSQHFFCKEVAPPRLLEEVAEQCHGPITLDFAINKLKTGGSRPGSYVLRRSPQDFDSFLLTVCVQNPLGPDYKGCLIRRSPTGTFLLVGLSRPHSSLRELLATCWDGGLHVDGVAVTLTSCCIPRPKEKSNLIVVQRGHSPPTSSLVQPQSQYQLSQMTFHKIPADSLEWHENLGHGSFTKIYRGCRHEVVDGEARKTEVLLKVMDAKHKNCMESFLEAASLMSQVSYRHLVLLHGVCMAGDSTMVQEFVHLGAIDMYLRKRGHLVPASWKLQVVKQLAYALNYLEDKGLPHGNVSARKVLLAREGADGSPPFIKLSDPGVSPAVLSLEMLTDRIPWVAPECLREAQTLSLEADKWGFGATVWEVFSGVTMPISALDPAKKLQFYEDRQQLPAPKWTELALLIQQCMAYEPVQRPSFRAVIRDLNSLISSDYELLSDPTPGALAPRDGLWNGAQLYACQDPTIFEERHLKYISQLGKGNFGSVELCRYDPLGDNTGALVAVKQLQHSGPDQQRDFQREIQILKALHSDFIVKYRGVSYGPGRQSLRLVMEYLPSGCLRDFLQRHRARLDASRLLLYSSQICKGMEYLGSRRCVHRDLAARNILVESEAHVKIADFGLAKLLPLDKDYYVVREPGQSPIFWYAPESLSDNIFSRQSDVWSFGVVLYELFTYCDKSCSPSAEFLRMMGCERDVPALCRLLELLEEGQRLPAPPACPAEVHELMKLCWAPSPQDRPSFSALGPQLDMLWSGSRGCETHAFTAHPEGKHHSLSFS
Description: as §1, §2
JAK3 (Carna Bio, USA, Inc. Natick, MA, Cat.No. 08-046)
as §3, §4

TYK2 = TYK2 (Homo sapiens (Human), UniProt P29597); assay: TYK2 enzymatic assay; type: biochemical; settings: ATP 16 μM, Peptide30
Chain of TYK2 (P29597 whole entry): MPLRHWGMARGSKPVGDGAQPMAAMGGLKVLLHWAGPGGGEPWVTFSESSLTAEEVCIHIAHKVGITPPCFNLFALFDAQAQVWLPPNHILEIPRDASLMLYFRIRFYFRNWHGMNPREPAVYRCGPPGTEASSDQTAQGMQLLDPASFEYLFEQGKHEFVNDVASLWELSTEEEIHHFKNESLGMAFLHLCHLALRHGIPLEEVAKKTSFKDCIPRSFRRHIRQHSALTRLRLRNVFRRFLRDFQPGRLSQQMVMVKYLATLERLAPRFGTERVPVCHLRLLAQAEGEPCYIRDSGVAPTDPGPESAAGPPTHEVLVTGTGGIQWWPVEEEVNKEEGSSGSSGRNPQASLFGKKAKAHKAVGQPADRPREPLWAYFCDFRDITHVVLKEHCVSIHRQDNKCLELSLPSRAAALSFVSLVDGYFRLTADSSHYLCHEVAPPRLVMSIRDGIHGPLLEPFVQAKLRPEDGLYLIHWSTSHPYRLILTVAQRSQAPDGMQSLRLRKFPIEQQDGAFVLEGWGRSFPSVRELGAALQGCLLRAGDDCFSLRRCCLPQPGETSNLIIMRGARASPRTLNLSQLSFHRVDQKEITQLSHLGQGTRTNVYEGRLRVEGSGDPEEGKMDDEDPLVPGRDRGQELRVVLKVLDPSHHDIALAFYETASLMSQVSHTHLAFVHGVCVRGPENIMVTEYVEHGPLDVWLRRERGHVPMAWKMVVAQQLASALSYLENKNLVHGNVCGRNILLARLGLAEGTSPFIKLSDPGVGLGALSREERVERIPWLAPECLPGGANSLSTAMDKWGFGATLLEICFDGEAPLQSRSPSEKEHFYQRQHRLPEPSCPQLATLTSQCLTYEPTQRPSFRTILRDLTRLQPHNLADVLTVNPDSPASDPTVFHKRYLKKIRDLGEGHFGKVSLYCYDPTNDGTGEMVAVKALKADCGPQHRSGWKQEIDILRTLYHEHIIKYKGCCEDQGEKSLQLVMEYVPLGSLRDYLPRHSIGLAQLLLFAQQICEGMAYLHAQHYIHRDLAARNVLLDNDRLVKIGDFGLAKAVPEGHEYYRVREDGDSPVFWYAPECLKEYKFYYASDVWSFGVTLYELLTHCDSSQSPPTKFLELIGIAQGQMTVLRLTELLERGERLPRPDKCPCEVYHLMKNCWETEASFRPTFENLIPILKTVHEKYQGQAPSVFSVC

[1] = Metabolic stability assay (liver microsomes); type: in vitro ADME; settings: dog liver microsomes; for Percent Remaining (%) 0 min / Percent Remaining (%) 5 min / Percent Remaining (%) 15 min / Percent Remaining (%) 30 min / Percent Remaining (%) 45 min: mean; for half-lives as compared with the reference compounds: vs Oclacitinib and ketanserin; for CLint scaled at 1 µM / half-life at 1 µM: pooled liver microsomes, pH 7.4
Description: Stock solutions of the sample and reference compounds were prepared in DMSO (10 mM). A spiking solution (500 μM) was prepared for each sample compound and reference compound by diluting 10 μL of the stock solution in ACN (190 μL). A microsomal spiking solution having a microsome concentration of 0.75 mg/mL was prepared for each sample: 1.5 μL of the respective 500 μM spiking solution was mixed with 18.75 μL microsomal solution (pooled liver microsomes, 20 mg/mL in 250 mM sucrose, Corning, Cat. No. 452601, Lot. No. 8176003) and 479.75 μL buffer (0.1 M potassium phosphate buffer, 1.0 mM EDTA, pH 7.4). The microsomal spiking solutions were cooled on ice. Assay plates with wells designated for different time points (0, 5, 15, 30 and 45 minutes) were cooled on ice. 30 μL of each microsomal spiking solution was added to the wells designated for different time points (0, 5, 15, 30 and 45 minutes). 135 μL of ACN containing IS was added to the wells of the plate labelled 0 minutes followed by 15 μL of the NaDPH stock solution (6 mM NaDPH in 0.1 M Potassium Phosphate buffer, 1.0 mM EDTA, pH 7.4). The plates for 5, 15, 30 and 45 minutes were incubated at 37° C. for 5 minutes. At 5 min, […], 30 min, and 45 min, 135 μL of ACN containing IS was added to the wells of the corresponding plates to quench the reaction. The plates were shaken [IKA vibrator, MTS 2/4] for 10 minutes and centrifuged at 5594 G for 15 minutes (Thermo Multifuge×3R). 50 μL of the supernatant from each well was transferred to a 96-well sample plate containing 50 μL of ultrapure water (Millipore, ZMQS50F01) for LC-MS analysis.

| Compound | pIC50 (JAK1) | selectivity for JAK1 over JAK2 (JAK1) | selectivity for JAK1 over JAK3 (JAK1) | pIC50 (JAK2) | pIC50 (JAK3) | pIC50 (TYK2) | Percent Remaining (%) 0 min [1] | Percent Remaining (%) 5 min [1] | Percent Remaining (%) 15 min [1] | Percent Remaining (%) 30 min [1] | Percent Remaining (%) 45 min [1] | half-lives as compared with the reference compounds [1] | CLint scaled at 1 µM [1] | half-life at 1 µM [1] |
| --- | --- | --- | --- | --- | --- | --- | --- | --- | --- | --- | --- | --- | --- | --- |
| CNC(=O)N[C@H]1CC[C@H](N(C)c2ncnc3[nH]ccc23)CC1 [Compound 1, 1-methyl-3-((1r,4r)-4-(methyl(7H-pyrrolo[2,3-d]pyrimidin-4-yl)amino)cyclohexyl)urea] | 6.81 | 87% | 3.96 fold | 6.53 | 6.21 | 5.42 |  |  |  |  |  |  |  |  |
| CCNC(=O)N[C@H]1CC[C@H](N(C)c2ncnc3[nH]ccc23)CC1 [Compound 2, 1-ethyl-3-((1r,4r)-4-(methyl(7H-pyrrolo[2,3-d]pyrimidin-4-yl)amino)cyclohexyl)urea] | 7.37 | 2.9 fold | 10.4 fold | 6.90 | 6.35 | 5.75 |  |  |  |  |  |  |  |  |
| CCCNC(=O)N[C@H]1CC[C@@H](N(C)c2ncnc3[nH]ccc23)CC1 [Compound 3, 1-propyl-3-((1r,4r)-4-(methyl(7H-pyrrolo[2,3-d]pyrimidin-4-yl)amino)cyclohexyl)urea] | 7.72 | 3.7 fold | 10.9 fold | 7.15 | 6.68 | 5.82 | 100.00% | 94.76% | 86.94% | 75.53% | 73.67% | dramatically improved half-lives | 35.4 mL/min/kg | 1.63 h |
| CC(C)NC(=O)N[C@H]1CC[C@H](N(C)c2ncnc3[nH]ccc23)CC1 [Compound 4, 1-isopropyl-3-((1r,4r)-4-(methyl(7H-pyrrolo[2,3-d]pyrimidin-4-yl)amino)cyclohexyl)urea] | 7.40 | 3.35 fold | 15.4 fold | 6.87 | 6.21 | 5.57 |  |  |  |  |  |  |  |  |
| CN(c1ncnc2[nH]ccc12)[C@H]1CC[C@H](NC(=O)NCC#N)CC1 [Compound 5, 1-(cyanomethyl)-3-((1r,4r)-4-(methyl(7H-pyrrolo[2,3-d]pyrimidin-4-yl)amino)cyclohexyl)urea] | 8.12 | 2.4 fold | 3.5 fold | 7.74 | 7.59 | 6.38 | 100.00% | 100.66% | 95.39% | 87.57% | 86.91% | dramatically improved half-lives | 18.2 mL/min/kg | 3.16 h |
| CN(c1ncnc2[nH]ccc12)[C@H]1CC[C@H](NC(=O)NCC(F)(F)F)CC1 [Compound 6, 1-((1r,4r)-4-(methyl(7H-pyrrolo[2,3-d]pyrimidin-4-yl)amino)cyclohexyl)-3-(2,2,2-trifluoroethyl)urea] | 8.64 | 6 fold | 18.3 fold | 7.85 | 7.38 | 6.47 | 100.00% | 93.91% | 85.39% | 76.25% | 71.95% | dramatically improved half-lives | 36.5 mL/min/kg | 1.58 h |
| CNS(=O)(=O)C[C@H]1CC[C@H](N(C)c2ncnc3[nH]ccc23)CC1 [Oclacitinib, reference compound] | 8.18 | 45% | 10.6 fold | 8.03 | 7.15 | 7.11 | 100.00% | 94.12% | 82.56% | 68.65% | 62.97% |  | 53 mL/min/kg | 1.09 h |
| O=C(c1ccc(F)cc1)C1CCN(CCn2c(=O)[nH]c3ccccc3c2=O)CC1 [ketanserin, reference compound] |  |  |  |  |  |  | 100.00% | 82.91% | 62.01% | 42.37% | 36.16% |  | 114 mL/min/kg | 0.505 h |
